Measured values taken from patent US20240218022A1, “ANTI-VISTA MACROCYCLIC PEPTIDES AND COMPOSITIONS” (BRISTOL-MYERS SQUIBB COMPANY, priority 2022, published 2024).
Read-outs that look alike come from different tables or passages of the source. Starred links: 1 amine or outer side, 2 acyl side, 3 side chain; linkers in the order of their positions; H or OH if unused. Positions of bridges follow the written chain, without caps; N, C: chain ends. Non-standard residues stand in square brackets, D forms with d. Residues, ends and D or L forms follow the SMILES beside them. Phe(3-Me) = Cc1cccc(C[C@H](N)C(=O)O)c1; γGlu = O=C(O)[C@H](CCC(=O)[*:2])N[*:1]; βAsp = O=C(O)[C@H](CC(=O)[*:2])N[*:1]; Ahp(2) = CCCCC[C@H](N)C(=O)O; NMeNle = CCCC[C@H](NC)C(=O)O; Tle = CC(C)(C)[C@H](N)C(=O)O; NHexGly = CCCCCCNCC(=O)O; Nle = CCCC[C@H](N)C(=O)O; Aun = NCCCCCCCCCCC(=O)O; AEEA = NCCOCCOCC(=O)O

Biological target: T1, mouse VISTA (mVISTA) (Mus musculus, UniProt Q9D659)
T1 construct: expressed in transfected cells; host or cells: Human embryonic kidney 293T cells
T1 sequence (Q9D659 33-308): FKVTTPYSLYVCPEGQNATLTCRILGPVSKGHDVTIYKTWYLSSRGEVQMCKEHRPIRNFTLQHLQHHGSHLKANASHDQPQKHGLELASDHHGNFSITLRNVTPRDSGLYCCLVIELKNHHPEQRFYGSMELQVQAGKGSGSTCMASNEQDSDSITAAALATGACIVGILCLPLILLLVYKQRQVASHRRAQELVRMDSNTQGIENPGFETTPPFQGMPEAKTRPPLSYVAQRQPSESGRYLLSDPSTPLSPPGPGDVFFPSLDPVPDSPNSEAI
Assay: Cell-Based Binding High-Content Assay For mVISTA (HC CBA mVISTA)
Summary of the method: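 Competition of compound with a biotinylated peptide (final 2 nM, 30 min at RT) for binding to mVISTA on 293T cells, run under no-wash or wash (1 h compound preincubation then removal) formats. Readout by Alexa 647–streptavidin imaging on a high-content platform; four-parameter logistic fit gave IC50.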

IC50 (read-out: HC CBA mVISTA IC50) [nM]	Structure (SMILES)	other results
	CCCCCCN1CC(=O)N[C@@H](Cc2ccc(O)cc2)C(=O)N[C@@H](CC(C)C)C(=O)N[C@@H](CC(N)=O)C(=O)N[C@@H](CCCNC(=N)N)C(=O)N[C@@H](CC(C)C)C(=O)N[C@@H](CCCCC)C(=O)N2CCC[C@H]2C(=O)N[C@@H](C(C)C)C(=O)N[C@@H](CO)C(=O)N[C@H](C(=O)N[C@@H](CC(=O)O)C(=O)NCCOCCOCC(=O)N[C@@H](CC(=O)O)C(=O)NCCOCCOCC(=O)NCCCCCCCCCCC(=O)O)CSCC(=O)N[C@@H](Cc2ccccc2)C(=O)N[C@@H](Cc2ccc(O)cc2)C(=O)N[C@@H](CC(=O)O)C1=O [compound 2004] ({CH2CO}-FYD[NHexGly]YLNRL[Ahp(2)]PVSCD[AEEA]D[AEEA][Aun]-OH; thioether N-14)	IC50 (cell-based binding high-content assay, mVISTA, read-out: HC CBA miPr ISTA IC50): 49.3 nM
	CCCCCCN1CC(=O)N[C@@H](Cc2ccc(O)cc2)C(=O)N[C@@H](CC(C)C)C(=O)NCC(=O)N[C@@H](CCCNC(=N)N)C(=O)N(C)[C@@H](CCCC)C(=O)N[C@@H](CCCCC)C(=O)N2CCC[C@H]2C(=O)N[C@@H](C(C)C)C(=O)N[C@@H](CO)C(=O)N[C@H](C(=O)NCC(N)=O)CSCC(=O)N[C@@H](Cc2ccccc2)C(=O)N[C@@H](Cc2ccc(O)cc2)C(=O)N[C@@H](CC(=O)O)C1=O [Example 1081] ({CH2CO}-FYD[NHexGly]YLGR[NMeNle][Ahp(2)]PVSCG-NH2; thioether N-14)	IC50 (293T cells expressing mouse VISTA, competition with biotinylated peptide (2 nM), read-out: CBA mVISTA IC50): 4.6 nM
51.7	CCCCCCN1CC(=O)N[C@@H](Cc2ccc(O)cc2)C(=O)N[C@@H](CC(C)C)C(=O)NCC(=O)N[C@@H](CCCNC(=N)N)C(=O)N[C@@H](Cc2ccc(O)cc2)C(=O)N[C@@H](CCCCC)C(=O)N2CCC[C@H]2C(=O)N[C@@H](C(C)C)C(=O)N[C@@H](CC(=O)O)C(=O)N[C@H](C(=O)NCC(N)=O)CSCC(=O)N[C@@H](Cc2ccccc2)C(=O)N[C@@H](Cc2c[nH]c3ccccc23)C(=O)N[C@@H](CC(=O)O)C1=O [Example 1416] ({CH2CO}-FWD[NHexGly]YLGRY[Ahp(2)]PVDCG-NH2; thioether N-14)	
38.8	CCCCCCN1CC(=O)N[C@@H](Cc2ccc(O)cc2)C(=O)N[C@@H](CCCC)C(=O)N[C@@H](CC(N)=O)C(=O)N[C@@H](CCCNC(=N)N)C(=O)N(C)[C@@H](CCCC)C(=O)N[C@@H](CCCCC)C(=O)N2CCC[C@H]2C(=O)N[C@@H](C(C)(C)C)C(=O)N[C@@H](CO)C(=O)N[C@H](C(=O)NCCOCCOCC(=O)N[C@@H](CCC(=O)NCCOCCOCC(=O)NCCCCCCCCCCC(=O)O)C(=O)O)CSCC(=O)N[C@@H](Cc2cccc(C)c2)C(=O)N[C@@H](Cc2c[nH]c3ccccc23)C(=O)N[C@@H](CC(=O)O)C1=O [compound 2228] ({CH2CO}-[Phe(3-Me)]WD[NHexGly]Y[Nle]NR[NMeNle][Ahp(2)]P[Tle]SC[AEEA][γGlu][AEEA][Aun]-OH; thioether N-14)	
29	CCCCCCN1CC(=O)N[C@@H](Cc2ccc(O)cc2)C(=O)N[C@@H](CCCC)C(=O)N[C@@H](CC(N)=O)C(=O)N[C@@H](CCCNC(=N)N)C(=O)N(C)[C@@H](CCCC)C(=O)N[C@@H](CCCCC)C(=O)N2CCC[C@H]2C(=O)N[C@@H](C(C)(C)C)C(=O)N[C@@H](CO)C(=O)N[C@H](C(=O)N[C@@H](CC(=O)NCCOCCOCC(=O)NCCCCCCCCCCC(=O)O)C(=O)O)CSCC(=O)N[C@@H](Cc2ccccc2)C(=O)N[C@@H](Cc2cccc(C)c2)C(=O)N[C@@H](CC(=O)O)C1=O [Example 2189] ({CH2CO}-F[Phe(3-Me)]D[NHexGly]Y[Nle]NR[NMeNle][Ahp(2)]P[Tle]SC[βAsp][AEEA][Aun]-OH; thioether N-14)	
	CCCCCCN1CC(=O)N[C@@H](Cc2ccc(O)cc2)C(=O)N[C@@H](CCCCC)C(=O)N[C@@H](CC(N)=O)C(=O)N[C@@H](CCCCN)C(=O)N[C@@H](CC(C)C)C(=O)N[C@@H](CCCCC)C(=O)N2CCC[C@H]2C(=O)N[C@@H](C(C)C)C(=O)N[C@@H](CO)C(=O)N[C@H](C(=O)NCC(N)=O)CSCC(=O)N[C@@H](Cc2ccccc2)C(=O)N[C@@H](Cc2ccc(O)cc2)C(=O)N[C@@H](CC(=O)O)C1=O [Example 1035] ({CH2CO}-FYD[NHexGly]Y[Ahp(2)]NKL[Ahp(2)]PVSCG-NH2; thioether N-14)	IC50 (293T cells expressing mouse VISTA, competition with biotinylated peptide (2 nM), read-out: HC CBA mVISTA IC50): 30.4 nM
